# Results as given in US20140186329A1, “POLYPHENOL ANALOGS TO TREAT ISCHEMIA” (priority 2011, published 2014).
# pEC50: −log10 of the molar value.
# Columns and labels:
# [1] = tested on: primary mouse cortical neurons; assay: Primary cortical cell glutamate excitotoxicity assay; assay type: cell-based; settings: for % protection against glutamate excitotoxicity at 0.1 µM: Mus musculus, Cortical neurone; for % protection against glutamate excitotoxicity at 0.1 µM / Primary Cortical Cell assay-Glutamate (% protection @ 100 nM): 10 μM glutamate, compound 100 nM
# Procedure: (§1) FIG. 5 illustrates pharmacological effects of Baicalein on cultured cells. (A) Trophic factor withdrawal. Primary cortical neurons are prepared from 18-day-old rat embryos, and cultured at low cell density 1×10^6/35 mm dish, in serum containing medium with Baicalein (10-10,000 nM), and viability assayed 2 days later using a live-dead assay. (B) Excitotoxicity assay was done with E14 mouse primary cortical neuron cultures. After 11 days of culture, cells were exposed to 10 μM glutamate for 10 min, followed by the addition of varying concentrations of Baicalein (0.2-5 μM). Cell viability was determined 24 hr later with a standard MTT assay. (C) PC12 cells were glucose-deprived then were incubates in the absence or presence of Baicalein. Cell viability was determined 24 hr later using the MTT assay. (D) RCG-5 nerve cells were treated with 30 μM iodoacetic acid for 2 hr in the presence or absence of 5-25 μM Baicalein. In some experiments, Baicalein was added 2 hr after the ischemic event. Cell survival (%) was measured after 24 hr by the MTT assay. Baicalein added before (□) or 2 hr after ([…]) ischemia.
# Primary cultures of cortical neurons that die due to excitotoxicity were prepared as described previously. Briefly, BALB/c mouse embryo cortices were minced and treated with 0.1% trypsin for 20 min. After centrifugation, the cells are resuspended in 827 Neurobasal medium (Invitrogen) plus 10% fetal calf serum and are dissociated by repeated pipetting through a 1 mL blue Eppendorf pipette tip. Then the cells are plated at 1×10^5 cells per well in 96-well poly-L-lysine and laminin-coated microtiter plates (Becton Dickinson, Bedford, Mass., USA) in 827 Neurobasal plus 10% fetal calf serum and 20% glial growth-conditioned medium. Two days later the medium is aspirated and replaced by serum-free 827 Neurobasal medium plus 10 μg/mL cytosine arabinoside. The cultures are used without media change 11 days after plating and are essentially free of astrocytes. They are exposed to 10 μM glutamate followed by varying concentrations of the compounds. Cell viability is determined 24 h later using the fluorescent live/dead assay. Glial conditioned medium is prepared from confluent rat astrocyte cultures. The cells are washed twice with serum-free medium and incubated for 2 days in serum-free Neurobasal medium to produce the growth conditioned medium.
# (1) ≧80% cell survival in mouse HT22 hippocampal cells in the presence of 20 μM iodoacetic acid (IAA) (in vitro ischemia model). See, Maher, et al., Brain Res. 2007, 1173:117-25. (2) ≧35% cell survival in primary mouse cortical neurons in the presence of 10 μM glutamate (in vitro excitotoxicity assay). See, Ishige, et al., Free Radic Biol Med, 2001, 30(4): p. 433-46.
# [2] = tested on: embolic strokes in rabbits; assay: Rabbit small clot embolic stroke model (RSCEM); assay type: in vivo; settings: for therapeutic window in the RSCEM: time post-embolization
# From the text: The ability of polyphenol analogs to treat, prevent and/or mitigate one or more symptoms of stroke can also be evaluated in in vivo assays. Such assays are known in the art and find use. One applicable in vivo screening assay is the rabbit clot embolic stroke model, discussed, e.g., in Lapchak, et al., Stroke (2002) 33(9):2279-84 and Lapchak, Exp Neurol. (2007) 205(2):407-13. The rabbit small clot embolic stroke model (RSCEM) and rabbit large clot embolic stroke model (RLCEM) can be used to determine the potential neuroprotective properties and safety profile of test polyphenol analogs after an embolic stroke. Rabbits are embolized by injecting small blood clots (RSCEM) or large blood clots (RLCEM) into the cerebral circulation. Behavioral analysis is conducted 24 hours later, allowing for determination of the effective stroke dose (ES50) or clot amount (milligrams) that produces severe neurological deficits in 50% of rabbits. A drug is considered neuroprotective if it increases the ES50 compared with the vehicle-treated control group.
# Behavioral analysis was conducted at 24 hours following treatment, which allowed for the construction of quantal dose-response analysis curves. […] For the superimposed graphs, normal animals are plotted on the y-axis at 0% and abnormal animals are plotted at 100%. […] Moreover, CGA increased the P50 value (the clot dose that produces abnormality in 50% of a treatment group) compared to vehicle control. For a detailed discussion of the methods used to fit the quantal data to a sigmoidal curve, see Zivin and Waud. The pharmacology of chlorogenic acid in the rabbit small clot embolic stroke model (RSCEM) has been published (Lapchak, Exp Neurol. 2007 205(2):407-13). In the manuscript, it is shown that CGA has a therapeutic window of 60 minutes in the RSCEM. FIG. 2 presents the therapeutic window data.
# PC12 cells = assay: Glucose starvation; assay type: cell-based; settings: MTT 24 hr
# Procedure: as §1, with “ischemia. […] When these cells are starved for glucose, there is approximately 70% maximal survival in the presence of NGF. Baicalein promotes over 80% survival (FIG. 5C).” for “ischemia.”
# RCG-5 nerve cells = assay: Chemical ischemia model (IAA) in RCG-5 nerve cells; assay type: cell-based; settings: 30 μM IAA 2 hr, 5-25 μM, also added 2 hrs after insult
# Procedure: as §1, with “ischemia. […] When these cells are starved for glucose, there is approximately 70% maximal survival in the presence of NGF. Baicalein promotes over 80% survival (FIG. 5C).” for “ischemia.”
# [3] = cell based assays (not specified)
# [4] = 50 mg/kg intravenously, 5 minutes following embolization, behavior at 24 hours
# [5] = administered 1 hour following embolization
# [6] = administered 3 hours following embolization
smiles,measurement,setting,value
"O=c1c(O)c(-c2ccc(O)c(O)c2)oc2c1ccc1ccccc12 [CMS-040, 2-(3,4-dihydroxyphenyl)-3-hydroxy-4H-benzo[h]chromen-4-one]",% protection against glutamate excitotoxicity at 0.1 µM,[1],86%
"O=C(/C=C/c1ccc(O)c(O)c1)O[C@@H]1C[C@](O)(C(=O)O)C[C@@H](O)[C@H]1O [Chlorogenic Acid, 1,3,4,5-tetrahydroxy-cyclohexanecarboxylic acid 3-(3,4-dihydroxycinnamate)]",% protection against glutamate excitotoxicity at 0.1 µM,[1],0%
same,P50 value (clot dose that produces abnormality in 50% of a group),[2]; [4],3.61 ± 0.52 mg
same,improvement of behavior,[2]; [5],effective at improving behavior
same,improvement of behavior,[2]; [6],neither improve behavior
same,therapeutic window in the RSCEM,[2],60 min
"COc1cc(-c2oc3cc(C)c(C)cc3c(=O)c2O)ccc1OCc1ccccc1 [CMS-059, 2-(4-(benzyloxy)-3-methoxyphenyl)-3-hydroxy-6,7-dimethyl-4H-chromen-4-one]",% protection against glutamate excitotoxicity at 0.1 µM,[1],78%
"O=c1cc(-c2ccccc2)oc2cc(O)c(O)c(O)c12 [Baicalein, 5,6,7-trihydroxyflavone, reference compound]",cells rescued in excitotoxicity assay,"[1]; E14 mouse cortical neurons, 10 μM glutamate 10 min, 0.2-5 μM, MTT 24 hr",about 35%
same,% protection against glutamate excitotoxicity at 0.1 µM,[1],0%
same,P50 value (clot dose that produces abnormality in 50% of a group),"[2]; 100 mg/kg subcutaneously, 60 minutes following embolization",2.15 ± 0.12 mg
same,improvement of behavior,[2]; [5],effective at improving behavior
same,improvement of behavior,[2]; [6],neither improve behavior
same,therapeutic window in the RSCEM,[2],≥ 60 min
same,survival of glucose-starved cells,PC12 cells,over 80%
same,prevention of cell death in chemical ischemia model,RCG-5 nerve cells,prevents cell death
"O=c1c(O)c(-c2ccc(O)c(O)c2)oc2cc(O)ccc12 [Fisetin, 3,7,3′,4′-Tetrahydroxyflavone, reference compound]",Primary Cortical Cell assay-Glutamate (% protection @ 100 nM),[1],0%
same,P50 value (clot dose that produces abnormality in 50% of a group),[2]; [4],2.53 ± 0.55 mg
same,pEC50,[3],5.30 to 5.70
"CCOc1cc(-c2ccc(O)c(O)c2)nc2ccccc12 [CMS-023, 4-ethoxy-2-(3,4-dihydroxyphenyl) quinoline]",Primary Cortical Cell assay-Glutamate (% protection @ 100 nM),[1],100%
"COc1cc(-c2oc3cc(C)c(C)cc3c(=O)c2O)ccc1O [CMS-069, 3-hydroxy-2-(4-hydroxy-3-methoxyphenyl)-6,7-dimethyl-4H-chromen-4-one]",Primary Cortical Cell assay-Glutamate (% protection @ 100 nM),[1],86%
"CC(C)Oc1cc(-c2ccc(O)c(O)c2)nc2ccccc12 [CMS-024, 4-isopropoxy-2-(3,4-dihydroxyphenyl) quinoline]",Primary Cortical Cell assay-Glutamate (% protection @ 100 nM),[1],58%
